From patent US20170247645A1, “ENCAPSULATED FRAGRANCE MIXTURES” (Symrise AG, priority 2014, published 2017)

Key:
[1] = Odor threshold value (OTV) in air
From the text: The odor threshold is the threshold at which a fragrance or odorant is olfactorily perceived by an organism. The odor threshold value, OTV for short, is that minimum concentration of a particular gaseous, sensorily active substance in the surrounding medium that this lifeform is just able to perceive through its sense of smell. In the present invention, preference is given to fragrances having a (very) low odor threshold value. The lower this is, the lower the concentration at which the fragrance is then perceived.

[2] = log Kow (octanol/water partition coefficient); assay type: physicochemical; conditions: 1-octanol/water
From the text: In a further preferred embodiment, the individual fragrances of the fragrance mixture of the invention have a log Kow value of 1 to 10, preferably of 1.5 to 8, more preferably of 2 to 5.5.
The log Kow (octanol/water partition coefficient) is a measure of the lipophilicity of a substance. In terms of calculation, it is the partition coefficient Kow of a substance in a mixture of 1-octanol and water. Kow is greater than one when a substance has better solubility in fat-like solvents such as n-octanol, and less than one when it has better solubility in water. Correspondingly, log Kow is positive for lipophilic substances and negative for hydrophilic substances.

CC(C)=C[C@H]1C[C@@H](C)CCO1 [Example 1, Rose oxide]
OTV [1]: 0.5 ppm | log Kow [2]: 3.58

CCOC(=O)[C@H]1O[C@@]1(C)c1ccccc1 [Example 2, Aldehyde C16]
OTV [1]: 0.2 ppm | log Kow [2]: 3

CC(C)=CCC[C@@H](C)CC#N [Example 3, citronellylnitrile]
OTV [1]: 1 ppm | log Kow [2]: 3.55

CC(C)=CCCC1=CC[C@](C)(C=O)CC1 [Example 6, Pre-cyclemone B]
OTV [1]: 0.5 ppm | log Kow [2]: 5.19

C=CCOC(=O)COCCC(C)C [Example 7, Allyl amyl glycolate]
OTV [1]: 0.1 ppm

COc1nccnc1CC(C)C [Example 9, 2-Isobutyl-3-methoxypyrazine]
OTV [1]: 0.1 ppm | log Kow [2]: 2.86

CCCCC/C=C\CCC=O [Example 10, cis-4-Decenal]
OTV [1]: 0.2 ppm | log Kow [2]: 3.55
